# Test results: patent US20230278954A1, “BRANCHED LIPID COMPOUDS” (priority 2020, published 2023)
# Values joined by “and” are separate entries in the source; they are usually repeats but may differ in a detail not shown here. Identical values can stand only once.
# Key:
# human TLR2 [1] = target: T1, human TLR2 (Homo sapiens, UniProt O60603); experiment: Activation of human TLR2 II: HEK-BLUE-hTLR2 NF-kB/SEAP reporter assay; format: cell-based; details: for optical density (650 nm): screenings 1-3
# T1 construct: expressed in transfected cells; host or cells: HEK-Blue hTLR2 cells
# Procedure: The potency of the compounds as activators of human TLR-2s is tested in an in vitro assay in HEK-BLUE-hTLR2 cells.
# HEK-BLUE-hTLR2 cells are designed for studying the stimulation of human TLR2 (hTLR2) by monitoring the activation of NF-kB. HEK-BLUE-hTLR2 cells are obtained by co-transfection of the hTLR2 and SEAP (secreted embryonic alkaline phosphatase) reporter genes into HEK293 cells. Stimulation with a TLR2 ligand activates NF-kB which induces the production of SEAP.
# HEK-BLUE-hTLR2 cells were purchased from InvivoGen (San Diego, CA, USA). Cells were grown in DMEM supplemented with 10% FCS, 100 U/ml penicillin, 100 ug/ml streptomycin and 2 mM L-glutamine, 100 µg/mL Normocin in the presence of selection antibiotic purchased from InvivoGen and passaged when 70% confluence was reached per manufacturer’s recommendation.
# i) A serial dilution of respective compounds were prepared in saline and added in […] of each dilution in triplicates per well in a flat bottom 96-well plate and placed in the incubator while waiting for the cells.
# ii) Remove HEK-BLUE-hTLR2 cells in a T-75 flask from incubator and discard the growth media.
# iii) Gently rinse the cells with prewarmed 10 ml of PBS
# iv) Add 5 ml of prewarmed PBS and place the cells in 37° C. for 2 mins and then detach the cells by gently pipetting up and down the PBS on the surface where the cells adhere.
# v) Cells suspension at the density of 280,000 cells/ml is prepared in HEK-Blue™ Detection medium which is purchased from InvivoGen and prepared according to the manufacturer’s instruction,
# vi) Add immediately […] of the cell suspension per well of the plate which contains the solution of the compounds. […]
# HEK-Blue Null2 cells = experiment: TLR- control cell line HEK-Blue Null2 (control for mouse TLR2); format: cell-based
# Procedure: (§1) The secreted embryonic alkaline phosphatase (SEAP) reporter is under the control of a promoter inducible by the transcription factor NF-κB. This reporter gene allows the monitoring of signaling through the TLR, based on the activation of NF-κB. In a 96-well plate (200 µL total volume) containing the appropriate cells (50,000 - 75,000 cells/well), 20 µL of the test article or the positive control ligand (HKLC) is added to the wells. The media added to the wells is designed for the detection of NF-κB induced SEAP expression. After a 16-24-hour incubation the optical density (OD) is read at 650 nm on a Molecular Devices SpectraMax 340PC absorbance detector.
# [2] = Stability IV: accelerated storage stability over 28 days, UHPLC; format: physicochemical; details: 40° C./75% RH
# Procedure: Each compound was formulated in 0.9% w/w saline with addition of 0.1% w/w EDTA at about pH 5. The formulations were stored in the dark under accelerated conditions (40° C./75% RH) and reference formulations were stored at -80° C. At days 0, 9 and 28, samples were analysed by UHPLC and pH was measured.
# Approximately 1.5 mg of each compound was weighed into glass HPLC vials and 1.5 mL of saline/EDTA formulation adjusted to pH 5.0 was added. The vials were vortex mixed then warmed under running hot water until full dissolution was observed.
# 4 × 100 uL aliquots of each solution were transferred to Agilent polypropylene 200 µL HPLC vials for storage under accelerated and reference conditions (two aliquots at each condition). These vials were removed at each time point for HPLC analysis. The frozen reference solutions at Day 9 and Day 28 were gently warmed under running hot water followed by vortex mixing for ~ 10 sec and sonication for 10 min to encourage complete dissolution. […]
# Compounds B4 and B12 were analysed according to Gradient 2: […]
# UHPLC results were analysed in a similarly to that described in Example 8. […]
# Percentage recovery of main peak area is calculated according to the following equation (1): […]
# HEK-Blue Null1 cells = experiment: TLR- control cell line HEK-Blue Null1 (control for human TLR2); format: cell-based
# Procedure: as §1
# human TLR2 [3] = target: T1, human TLR2; experiment: Activation of human TLR2 III: HEK-Blue hTLR2 dose response (SEAP reporter); format: cell-based; details: for optical density (650 nm): screenings 1-3
# Procedure: Toll-Like Receptor (TLR) stimulation is tested by assessing NF-KB activation in the TLR expressing cell lines. HEK-Blue h/mTLR2 cells have been stably transfected with human or mouse TLR2 and CD14. The activity of the test articles are tested on human and mouse TLR2, as potential agonists. The test articles are evaluated at seven concentrations and compared to control ligands (see list below). These steps are performed in triplicate.
# A 5 µg/mL working stock was then prepared for each compound from the 20 µg/mL dilution in sterile PBS. Starting from the 5 µg/mL working stock, a series of six 1:4 serial dilutions were made by mixing 100 µL of the previous highest dilution with 300 µL sterile PBS.
# as §1
# T1 sequence (O60603 21-784): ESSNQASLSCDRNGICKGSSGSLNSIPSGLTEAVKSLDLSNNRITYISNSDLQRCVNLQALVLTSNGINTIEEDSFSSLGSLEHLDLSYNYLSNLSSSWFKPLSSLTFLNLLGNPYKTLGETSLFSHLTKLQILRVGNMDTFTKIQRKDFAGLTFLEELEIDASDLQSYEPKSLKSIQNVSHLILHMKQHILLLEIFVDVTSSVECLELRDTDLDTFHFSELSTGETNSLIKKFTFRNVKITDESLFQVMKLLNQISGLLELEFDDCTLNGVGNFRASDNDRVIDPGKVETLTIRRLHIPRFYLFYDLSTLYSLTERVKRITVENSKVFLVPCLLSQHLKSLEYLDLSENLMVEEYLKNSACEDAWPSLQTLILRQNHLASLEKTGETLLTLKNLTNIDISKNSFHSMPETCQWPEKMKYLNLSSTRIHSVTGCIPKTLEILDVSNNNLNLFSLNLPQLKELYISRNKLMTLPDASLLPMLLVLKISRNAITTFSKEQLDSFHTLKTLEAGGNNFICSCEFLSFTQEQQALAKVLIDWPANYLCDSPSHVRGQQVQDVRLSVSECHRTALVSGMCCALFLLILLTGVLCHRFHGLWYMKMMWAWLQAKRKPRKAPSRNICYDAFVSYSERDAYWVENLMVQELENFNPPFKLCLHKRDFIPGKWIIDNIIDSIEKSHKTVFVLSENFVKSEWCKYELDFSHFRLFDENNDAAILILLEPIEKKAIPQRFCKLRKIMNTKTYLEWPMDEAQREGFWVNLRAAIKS
# T1 sequence (Q9Y2C9 32-796 partner): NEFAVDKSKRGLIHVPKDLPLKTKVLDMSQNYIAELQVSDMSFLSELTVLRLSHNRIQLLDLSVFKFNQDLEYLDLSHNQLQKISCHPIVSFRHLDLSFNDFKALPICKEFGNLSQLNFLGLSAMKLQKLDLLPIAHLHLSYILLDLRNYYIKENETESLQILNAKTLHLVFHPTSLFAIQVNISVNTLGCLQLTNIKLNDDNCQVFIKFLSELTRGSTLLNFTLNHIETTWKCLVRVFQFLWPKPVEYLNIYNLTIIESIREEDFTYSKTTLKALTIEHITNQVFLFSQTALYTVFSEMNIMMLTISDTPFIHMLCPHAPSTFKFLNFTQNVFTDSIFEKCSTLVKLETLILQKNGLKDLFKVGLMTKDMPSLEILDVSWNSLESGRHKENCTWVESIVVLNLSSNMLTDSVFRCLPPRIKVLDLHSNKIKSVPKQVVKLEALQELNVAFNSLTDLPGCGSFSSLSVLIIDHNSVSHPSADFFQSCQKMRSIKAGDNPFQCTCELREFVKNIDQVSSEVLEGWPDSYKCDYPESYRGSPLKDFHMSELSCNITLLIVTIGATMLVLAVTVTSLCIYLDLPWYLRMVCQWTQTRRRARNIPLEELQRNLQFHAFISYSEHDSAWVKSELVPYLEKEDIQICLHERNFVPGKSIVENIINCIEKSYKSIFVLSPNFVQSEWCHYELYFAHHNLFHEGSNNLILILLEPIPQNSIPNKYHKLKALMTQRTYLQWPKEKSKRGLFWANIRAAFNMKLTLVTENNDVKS
smiles,measurement,setting,value
CCCCCCCCCCCCCCC(C)C(=O)OCC[C@H](CSC[C@H](N)C(=O)N[C@@H](CO)C(=O)NCCOCCOCCOCCOCCOCCOCCOCCOCCOCCOCCOCCOCCOCCOCCOCCOCCOCCOCCOCCOCCOCCOCCOCCOCCOCCOCCOCCOCCC(=O)NCC(N)=O)OC(=O)C(C)CCCCCCCCCCCCCC (stereo partly drawn) [Compound B12],optical density (650 nm),human TLR2 [1]; 0.1 ng/mL,0.239 and 0.202 and 0.208
same,optical density (650 nm),human TLR2 [1]; 0.31 ng/mL,0.116 and 0.132 and 0.137
same,optical density (650 nm),human TLR2 [1]; 0.5 ng/mL,0.585 and 0.558 and 0.559
same,optical density (650 nm),human TLR2 [1]; 2.0 ng/mL,1.429 and 1.308 and 1.638
same,optical density (650 nm),human TLR2 [1]; 7.8 ng/mL,2.187 and 2.257 and 2.302
same,optical density (650 nm),human TLR2 [1]; 31.3 ng/mL,2.422 and 2.423 and 2.449
same,optical density (650 nm),human TLR2 [1]; 125 ng/mL,2.409 and 2.564 and 2.615
same,EC50,human TLR2 [1]; HEK-BLUE-hTLR2 cells,0.74 nM
same,activity at TLR2 (in words),human TLR2 [1]; HEK-BLUE-hTLR2 cells,significant activity
same,fold induction at 0.0001 µg/mL,"human TLR2 [1]; HEK-Blue hTLR2, 0.1 ng/mL, read-out: Fold induction (ratio of average induced value to average non-induced value)",2.2
same,fold induction at 0.00031 µg/mL,"human TLR2 [1]; HEK-Blue hTLR2, 0.31 ng/mL, read-out: Fold induction (ratio of average induced value to average non-induced value)",1.3
same,fold induction at 0.0005 µg/mL,"human TLR2 [1]; HEK-Blue hTLR2, 0.5 ng/mL, read-out: Fold induction (ratio of average induced value to average non-induced value)",5.8
same,fold induction at 0.002 µg/mL,"human TLR2 [1]; HEK-Blue hTLR2, 2.0 ng/mL, read-out: Fold induction (ratio of average induced value to average non-induced value)",15
same,fold induction at 0.0078 µg/mL,"human TLR2 [1]; HEK-Blue hTLR2, 7.8 ng/mL, read-out: Fold induction (ratio of average induced value to average non-induced value)",23.2
same,fold induction at 0.0313 µg/mL,"human TLR2 [1]; HEK-Blue hTLR2, 31.3 ng/mL, read-out: Fold induction (ratio of average induced value to average non-induced value)",25.1
same,fold induction at 0.125 µg/mL,"human TLR2 [1]; HEK-Blue hTLR2, 125 ng/mL, read-out: Fold induction (ratio of average induced value to average non-induced value)",26.1
same,stimulatory response in HEK-Blue Null2 (mouse) cells (in words),HEK-Blue Null2 cells,not observed
same,storage stability under accelerated conditions (in words),[2],most stable compounds
same,stimulatory response in HEK-Blue Null1 (human) cells (in words),HEK-Blue Null1 cells,not observed
same,Average optical density (650 nm),human TLR2 [3]; 0.12 pg/mL,1.362
same,optical density (650 nm),human TLR2 [3]; 0.12 pg/mL,1.443 and 1.313 and 1.329
same,Average optical density (650 nm),human TLR2 [3]; 0.49 pg/mL,1.860
same,optical density (650 nm),human TLR2 [3]; 0.49 pg/mL,1.892 and 1.785 and 1.902
same,Average optical density (650 nm),human TLR2 [3]; 1.95 pg/mL,2.045
same,optical density (650 nm),human TLR2 [3]; 1.95 pg/mL,2.149 and 2.008 and 1.979
same,Average optical density (650 nm),human TLR2 [3]; 7.81 pg/mL,2.411
same,optical density (650 nm),human TLR2 [3]; 7.81 pg/mL,2.420 and 2.446 and 2.366
same,Average optical density (650 nm),human TLR2 [3]; 31.25 pg/mL,2.457
same,optical density (650 nm),human TLR2 [3]; 31.25 pg/mL,2.492 and 2.500 and 2.380
same,Average optical density (650 nm),human TLR2 [3]; 125 pg/mL,2.568
same,optical density (650 nm),human TLR2 [3]; 125 pg/mL,2.608 and 2.541 and 2.555
same,Average optical density (650 nm),human TLR2 [3]; 500 pg/mL,2.471
same,optical density (650 nm),human TLR2 [3]; 500 pg/mL,2.584 and 2.404 and 2.426
same,stimulatory / agonist activity for hTLR2 (in words),human TLR2 [3]; HEK-Blue hTLR2,stimulatory activity
same,fold induction at 120 fg/mL,"human TLR2 [3]; HEK-Blue hTLR2, 0.12 pg/mL, read-out: Fold Induction (ratio of average induced value to average non-induced value)",18.7
same,fold induction at 490 fg/mL,"human TLR2 [3]; HEK-Blue hTLR2, 0.49 pg/mL, read-out: Fold Induction (ratio of average induced value to average non-induced value)",25.5
same,fold induction at 1.95 pg/mL,"human TLR2 [3]; HEK-Blue hTLR2, 1.95 pg/mL, read-out: Fold Induction (ratio of average induced value to average non-induced value)",28
same,fold induction at 7.81 pg/mL,"human TLR2 [3]; HEK-Blue hTLR2, 7.81 pg/mL, read-out: Fold Induction (ratio of average induced value to average non-induced value)",33
same,fold induction at 31.25 pg/mL,"human TLR2 [3]; HEK-Blue hTLR2, 31.25 pg/mL, read-out: Fold Induction (ratio of average induced value to average non-induced value)",33.7
same,fold induction at 0.000125 µg/mL,"human TLR2 [3]; HEK-Blue hTLR2, 125 pg/mL, read-out: Fold Induction (ratio of average induced value to average non-induced value)",35.2
same,fold induction at 0.0005 µg/mL,"human TLR2 [3]; HEK-Blue hTLR2, 500 pg/mL, read-out: Fold Induction (ratio of average induced value to average non-induced value)",33.9
same,EC50,"human TLR2 [3]; agonism of hTLR2, HEK-Blue hTLR2",0.0509 nM
